Where “and” joins values, the source holds several entries; their conditions need not be identical. Equal entries are not always repeated.
Test: Shake flask solubility of ITN in {DMSO (1) + H2O (2)} mixes, HPLC
Type: physicochemical
Conditions: 101.1 kPa
Experimental: A series of {DMSO (1) + H2O (2)} solutions, with DMSO mass percentages ranging from 0.10 to 0.90, was examined. Three replicates of each {DMSO (1) + H2O (2)} combination were taken. ITN’s mole fraction solubility versus mass fraction of DMSO (m = 0.0–1.0) and neat DMSO and H2O was measured using a shake flask approach at 298.2–318.2 K and 101.1 kPa. In essence, the known amounts of each {DMSO (1) + H2O (2)} combination and neat DMSO and H2O were combined with extra ITN crystals in triplicate. The equilibrium was achieved by saturating the resultant mixes in a WiseBath® WSB shaking water bath (Model WSB-18/30/-45, Daihan Scientific Co. Ltd., Seoul, Korea) at a shaking speed of 100 rpm for 72 h. In order to evaluate the equilibrium time, the preliminary experiments were performed at different time intervals. […] The saturated solutions were again removed from the shaker after they had reached equilibrium and centrifuged for 30 min at 5000 rpm. A previously established environmentally friendly HPLC method was used to assess the ITN content after the supernatants were isolated and diluted (as required). The identification of ITN was carried out via a Nucleodur (dimensions: 150 mm × 4.6 mm and particle size: 5 μm) reversed-phase C18 analytical column at 298.2 K. The environmentally friendly mobile used was a binary mixture of ethyl acetate and ethanol (50:50% v v^−1). The mobile phase was delivered with a flow speed of 1 mL min^−1. The ITN measurements were performed at a wavelength of 354 nm. The sample volume was 20 μL, which was injected using a Waters autosampler. The Analytical GREEnness (AGREE) score was determined to evaluate the eco-friendliness nature of the HPLC method. The AGREE score was predicted to be 0.76 for the present HPLC method, indicating the eco-friendly nature of the HPLC method. ITN mole fraction solubilities (xe) were calculated using their standard formulae described in our previous work.

xe experimental solubility (DMSO mass fraction m = 0.0, T = 298.2 K): 3.10 (0.07) × 10^−7 mole fraction
xe experimental solubility (DMSO mass fraction m = 0.0, T = 303.2 K): 4.60 (0.15) × 10^−7 mole fraction
xe experimental solubility (DMSO mass fraction m = 0.0, T = 308.2 K): 7.50 (0.18) × 10^−7 mole fraction
xe experimental solubility (DMSO mass fraction m = 0.0, T = 313.2 K): 1.10 (0.02) × 10^−6 mole fraction
xe experimental solubility (DMSO mass fraction m = 0.0, T = 318.2 K): 1.50 (0.03) × 10^−6 mole fraction
xe experimental solubility (DMSO mass fraction m = 0.1, T = 298.2 K): 1.12 (0.02) × 10^−6 mole fraction
xe experimental solubility (DMSO mass fraction m = 0.1, T = 303.2 K): 1.59 (0.03) × 10^−6 mole fraction
xe experimental solubility (DMSO mass fraction m = 0.1, T = 308.2 K): 2.45 (0.05) × 10^−6 mole fraction
xe experimental solubility (DMSO mass fraction m = 0.1, T = 313.2 K): 3.47 (0.06) × 10^−6 mole fraction
xe experimental solubility (DMSO mass fraction m = 0.1, T = 318.2 K): 4.61 (0.11) × 10^−6 mole fraction
xe experimental solubility (DMSO mass fraction m = 0.2, T = 298.2 K): 3.83 (0.08) × 10^−6 mole fraction
xe experimental solubility (DMSO mass fraction m = 0.2, T = 303.2 K): 5.28 (0.17) × 10^−6 mole fraction
xe experimental solubility (DMSO mass fraction m = 0.2, T = 308.2 K): 7.87 (0.21) × 10^−6 mole fraction
xe experimental solubility (DMSO mass fraction m = 0.2, T = 313.2 K): 1.10 (0.01) × 10^−5 mole fraction
xe experimental solubility (DMSO mass fraction m = 0.2, T = 318.2 K): 1.42 (0.02) × 10^−5 mole fraction
xe experimental solubility (DMSO mass fraction m = 0.3, T = 298.2 K): 1.36 (0.01) × 10^−5 mole fraction
xe experimental solubility (DMSO mass fraction m = 0.3, T = 303.2 K): 1.82 (0.03) × 10^−5 mole fraction
xe experimental solubility (DMSO mass fraction m = 0.3, T = 308.2 K): 2.57 (0.04) × 10^−5 mole fraction
xe experimental solubility (DMSO mass fraction m = 0.3, T = 313.2 K): 3.43 (0.06) × 10^−5 mole fraction
xe experimental solubility (DMSO mass fraction m = 0.3, T = 318.2 K): 4.29 (0.07) × 10^−5 mole fraction
xe experimental solubility (DMSO mass fraction m = 0.4, T = 298.2 K): 4.68 (0.07) × 10^−5 mole fraction
xe experimental solubility (DMSO mass fraction m = 0.4, T = 303.2 K): 6.06 (0.08) × 10^−5 mole fraction
xe experimental solubility (DMSO mass fraction m = 0.4, T = 308.2 K): 8.23 (0.10) × 10^−5 mole fraction
xe experimental solubility (DMSO mass fraction m = 0.4, T = 313.2 K): 1.08 (0.01) × 10^−4 mole fraction
xe experimental solubility (DMSO mass fraction m = 0.4, T = 318.2 K): 1.32 (0.02) × 10^−4 mole fraction
xe experimental solubility (DMSO mass fraction m = 0.5, T = 298.2 K): 1.65 (0.04) × 10^−4 mole fraction
xe experimental solubility (DMSO mass fraction m = 0.5, T = 303.2 K): 2.05 (0.05) × 10^−4 mole fraction
xe experimental solubility (DMSO mass fraction m = 0.5, T = 308.2 K): 2.69 (0.06) × 10^−4 mole fraction
xe experimental solubility (DMSO mass fraction m = 0.5, T = 313.2 K): 3.31 (0.07) × 10^−4 mole fraction
xe experimental solubility (DMSO mass fraction m = 0.5, T = 318.2 K): 3.96 (0.08) × 10^−4 mole fraction
xe experimental solubility (DMSO mass fraction m = 0.6, T = 298.2 K): 5.70 (0.10) × 10^−4 mole fraction
xe experimental solubility (DMSO mass fraction m = 0.6, T = 303.2 K): 6.88 (0.12) × 10^−4 mole fraction
xe experimental solubility (DMSO mass fraction m = 0.6, T = 308.2 K): 8.57 (0.17) × 10^−4 mole fraction
xe experimental solubility (DMSO mass fraction m = 0.6, T = 313.2 K): 1.08 (0.01) × 10^−3 mole fraction
xe experimental solubility (DMSO mass fraction m = 0.6, T = 318.2 K): 1.22 (0.02) × 10^−3 mole fraction
xe experimental solubility (DMSO mass fraction m = 0.7, T = 298.2 K): 2.02 (0.03) × 10^−3 mole fraction
xe experimental solubility (DMSO mass fraction m = 0.7, T = 303.2 K): 2.33 (0.05) × 10^−3 mole fraction
xe experimental solubility (DMSO mass fraction m = 0.7, T = 308.2 K): 2.79 (0.06) × 10^−3 mole fraction
xe experimental solubility (DMSO mass fraction m = 0.7, T = 313.2 K): 3.24 (0.07) × 10^−3 mole fraction
xe experimental solubility (DMSO mass fraction m = 0.7, T = 318.2 K): 3.66 (0.08) × 10^−3 mole fraction
xe experimental solubility (DMSO mass fraction m = 0.8, T = 298.2 K): 6.97 (0.10) × 10^−3 mole fraction
xe experimental solubility (DMSO mass fraction m = 0.8, T = 303.2 K): 7.81 (0.12) × 10^−3 mole fraction
xe experimental solubility (DMSO mass fraction m = 0.8, T = 308.2 K): 8.96 (0.20) × 10^−3 mole fraction
xe experimental solubility (DMSO mass fraction m = 0.8, T = 313.2 K): 1.02 (0.01) × 10^−2 mole fraction
xe experimental solubility (DMSO mass fraction m = 0.8, T = 318.2 K): 1.15 (0.01) × 10^−2 mole fraction
xe experimental solubility (DMSO mass fraction m = 0.9, T = 298.2 K): 2.44 (0.02) × 10^−2 mole fraction
xe experimental solubility (DMSO mass fraction m = 0.9, T = 303.2 K): 2.66 (0.03) × 10^−2 mole fraction
xe experimental solubility (DMSO mass fraction m = 0.9, T = 308.2 K): 2.86 (0.03) × 10^−2 mole fraction
xe experimental solubility (DMSO mass fraction m = 0.9, T = 313.2 K): 3.19 (0.04) × 10^−2 mole fraction
xe experimental solubility (DMSO mass fraction m = 0.9, T = 318.2 K): 3.39 (0.05) × 10^−2 mole fraction
xe experimental solubility (DMSO mass fraction m = 1.0, T = 298.2 K): 8.47 (0.10) × 10^−2 mole fraction
xe experimental solubility (DMSO mass fraction m = 1.0, T = 303.2 K): 8.88 (0.11) × 10^−2 mole fraction
xe experimental solubility (DMSO mass fraction m = 1.0, T = 308.2 K): 9.31 (0.12) × 10^−2 mole fraction
xe experimental solubility (DMSO mass fraction m = 1.0, T = 313.2 K): 9.80 (0.13) × 10^−2 mole fraction
SMILES: CC1=C(/C=C/C(C)=C/C=C/C(C)=C\C(=O)O)C(C)(C)CCC1 [ITN, isotretinoin]
xe experimental solubility (DMSO mass fraction m = 1.0, T = 318.2 K): 1.02 × 10^−1 mole fraction and 1.02 (0.01) × 10^−1 mole fraction
